Molecular target: T1, human mAChR M1 (Homo sapiens, UniProt P11229)
T1 construct: host or cells: CHO-K1
T1 sequence (P11229 1-460): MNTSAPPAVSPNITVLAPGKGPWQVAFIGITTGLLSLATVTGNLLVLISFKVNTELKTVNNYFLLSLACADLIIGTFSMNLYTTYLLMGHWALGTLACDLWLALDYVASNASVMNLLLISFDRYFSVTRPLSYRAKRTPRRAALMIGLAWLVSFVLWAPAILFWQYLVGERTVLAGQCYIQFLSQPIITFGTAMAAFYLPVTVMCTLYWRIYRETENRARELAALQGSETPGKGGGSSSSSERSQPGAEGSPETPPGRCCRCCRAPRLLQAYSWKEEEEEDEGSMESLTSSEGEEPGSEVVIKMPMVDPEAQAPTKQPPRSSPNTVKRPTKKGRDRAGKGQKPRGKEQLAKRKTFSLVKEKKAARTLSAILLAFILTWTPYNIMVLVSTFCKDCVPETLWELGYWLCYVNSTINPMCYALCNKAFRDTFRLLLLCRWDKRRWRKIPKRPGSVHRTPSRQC
Assay: mAChR M1 cell-based functional assay (calcium mobilization, Fluo-4, FDSS)
Conditions: CHO-K1 cells stably expressing hM1; for Emax: EC20 acetylcholine response, read-out: Human M1 Emax; for EC50: positive allosteric modulator activity as increase in the EC20 acetylcholine response
Description: Chinese hamster ovary (CHO-K1) cells stably expressing rat (r)M1 were purchased from the American Type Culture Collection and cultured according to their indicated protocol. […] To make stable rM2, hM2, rM3, hM4, and rM4 cell lines for use in calcium mobilization assays, these cells also were stably transfected with a chimeric G-protein (Gqi5) (provided by B. R. Conklin, University of California, San Francisco) using Lipofectamine 2000. rM1, hM1, rM3, hM3, rM5, and hM5 cells were grown in Ham's F-12 medium containing 10% heat-inactivated fetal bovine serum (FBS), 20 mM HEPES, and 50 μg/mL G418 sulfate. rM2-Gqi5, hM2-Gqi5, and hM4-Gqi5 cells were grown in the same medium also containing 500 μg/mL Hygromycin B. Stable rM4-Gqi5 cells were grown in DMEM containing 10% heat-inactivated FBS, 20 mM HEPES, 400 μg/mL G418 sulfate, and 500 μg/mL Hygromycin B.
For high throughput measurement of agonist-evoked increases in intracellular calcium, CHO-K1 cells stably expressing muscarinic receptors were plated in growth medium lacking G418 and hygromycin at 15,000 cells/20 μL/well in Greiner 384-well black-walled, tissue culture (TC)-treated, clear-bottom plates (VWR). Cells were incubated overnight at 37° C. and 5% CO2. […] Compound master plates were formatted in an 11 point CRC format (1:3 dilutions) in 100% DMSO with a starting concentration of 10 mM using the BRAVO liquid handler (Agilent). Test compound CRCs were then transferred to daughter plates (240 nL) using the Echo acoustic plate reformatter (Labcyte, Sunnyvale, Calif.) and then diluted into assay buffer (40 μL) to a 2× stock using a Thermo Fisher Combi (Thermo Fisher Scientific, Waltham, Mass.).
Calcium flux was measured using the Functional Drug Screening System (FDSS) 6000 (Hamamatsu Corporation, Tokyo, Japan) as an increase in the fluorescent static ratio. Compounds were applied to cells (20 μL, 2×) using the automated system of the FDSS 6000 at 4 s into the 300 s protocol and the data were collected at 1 Hz. […] Agonist activity was analyzed as a concentration-dependent increase in calcium mobilization upon compound addition. Positive allosteric modulator activity was analyzed as a concentration-dependent increase in the EC20 acetylcholine response. Antagonist activity was analyzed as a concentration-dependent decrease in the EC80 acetylcholine response. Concentration-response curves were generated using a four-parameter logistical equation in XLfit curve fitting software (IDBS, Bridgewater, N.J.) for Excel (Microsoft, Redmond, Wash.) or Prism (GraphPad Software, Inc., San Diego, Calif.).
The compound numbers correspond to the compound numbers used in Table 1.

Compound | Emax [%] | EC50 [nM]
O=C(N[C@@H]1CCOC1)c1cc(Cc2ccc(-n3cccn3)cc2)c2ccsc2n1 [Compound 78, 4-[(4-pyrazol-1-ylphenyl)methyl]-N-[(3R)-tetrahydrofuran-3-yl]thieno[2,3-b]pyridine-6-carboxamide] | 68.5 | 1720
Cn1ncc2c(Cc3ccc(-c4cscn4)cc3)cc(C(=O)NC3CC4(COC4)C3)nc21 [Compound 30, 1-methyl-N-(2-oxaspiro[3.3]heptan-6-yl)-4-[(4-thiazol-4-ylphenyl)methyl]pyrazolo[3,4-b]pyridine-6-carboxamide] | 77.8 | 660
Cn1ccc2c(Cc3ccc(-n4cccn4)cc3)cc(C(=O)NC3CCOCC3)nc21 [Compound 18, 1-methyl-4-[(4-pyrazol-1-ylphenyl)methyl]-N-tetrahydropyran-4-yl-pyrrolo[2,3-b]pyridine-6-carboxamide] | 73.1 | 180
Cn1ccc2c(Cc3ccc(-c4nccs4)cc3)cc(C(=O)N[C@H]3CCCC[C@@H]3O)nc21 [Compound 60, N-[(1S,2S)-2-hydroxycyclohexyl]-1-methyl-4-[(4-thiazol-2-ylphenyl)methyl]pyrrolo[2,3-b]pyridine-6-carboxamide] | 55.4 | 110
O=C(NCC1CCN1)c1cc(Cc2ccc(-n3cccn3)cc2)c2ccsc2n1 (stereo not drawn) [Compound 84, N-(azetidin-2-ylmethyl)-4-[(4-pyrazol-1-ylphenyl)methyl]thieno[2,3-b]pyridine-6-carboxamide] | 42.7 | 1080
Cn1ccc(-c2ccc(Cc3cc(C(=O)N[C@H]4CCOC[C@@H]4O)nc4c3ccn4C)cc2)n1 [Compound 37, N-[(3R,4S)-3-hydroxytetrahydropyran-4-yl]-1-methyl-4-[[4-(1-methylpyrazol-3-yl)phenyl]methyl]pyrrolo[2,3-b]pyridine-6-carboxamide] | 76.7 | 60
Cn1ccc2c(Cc3ccc(-n4cccn4)cc3)cc(C(=O)N[C@H]3CCOC[C@@H]3O)nc21 [Compound 16, N-[(3R,4S)-3-hydroxytetrahydropyran-4-yl]-1-methyl-4-[(4-pyrazol-1-ylphenyl)methyl]pyrrolo[2,3-b]pyridine-6-carboxamide] | 63.4 | 10
O=C(NC1CCOCC1)c1cc(Cc2ccc(-n3cccn3)cc2)c2ccsc2n1 [Compound 71, 4-[(4-pyrazol-1-ylphenyl)methyl]-N-tetrahydropyran-4-yl-thieno[2,3-b]pyridine-6-carboxamide] | 73.4 | 140
Cn1ccc2c(Cc3ccc(-c4nccs4)cc3)cc(C(=O)NC3CCOC(C)(C)C3)nc21 (stereo not drawn) [Compound 66, N-(2,2-dimethyltetrahydropyran-4-yl)-1-methyl-4-[(4-thiazol-2-ylphenyl)methyl]pyrrolo[2,3-b]pyridine-6-carboxamide] | 59.6 | 1650
Cc1nc(-c2ccc(Cc3cc(C(=O)NCC4CCOCC4)nc4c3ccn4C)cc2)co1 [Compound 58, 1-methyl-4-[[4-(2-methyloxazol-4-yl)phenyl]methyl]-N-(tetrahydropyran-4-ylmethyl)pyrrolo[2,3-b]pyridine-6-carboxamide] | 84.1 | 1050

Next, values leading:

Emax [%] | EC50 [nM] | Compound
82.4 | 940 | CC1CC(NC(=O)c2cc(Cc3ccc(-c4ccn(C)n4)nc3)c3ccn(C)c3n2)CC(C)O1 (stereo not drawn) [Compound 148, N-(2,6-dimethyltetrahydropyran-4-yl)-1-methyl-4-[[6-(1-methylpyrazol-3-yl)-3-pyridyl]methyl]pyrrolo[2,3-b]pyridine-6-carboxamide]
62.4 | 50 | Cn1ccc(-c2ccc(Cc3cc(C(=O)N[C@H]4CCCC[C@@H]4O)nc4sccc34)cc2)n1 [Compound 88, N-[(1S,2S)-2-hydroxycyclohexyl]-4-[[4-(1-methylpyrazol-3-yl)phenyl]methyl]thieno[2,3-b]pyridine-6-carboxamide]
58.9 | 550 | Cn1cc(-c2ccc(Cc3cc(C(=O)N[C@@H]4CCOC4)nc4sccc34)cn2)cn1 [Compound 121, 4-[[6-(1-methylpyrazol-4-yl)-3-pyridyl]methyl]-N-[(3R)-tetrahydrofuran-3-yl]thieno[2,3-b]pyridine-6-carboxamide]
77.6 | 470 | Cn1ccc(-c2ccc(Cc3cc(C(=O)NC4CCOCC4)nc4c3ccn4C)cn2)n1 [Compound 145, 1-methyl-4-[[6-(1-methylpyrazol-3-yl)-3-pyridyl]methyl]-N-tetrahydropyran-4-yl-pyrrolo[2,3-b]pyridine-6-carboxamide]
57.3 | 90 | Cn1ccc(-c2ccc(Cc3cc(C(=O)NCC4CCOCC4)nc4sccc34)cn2)n1 [Compound 107, 4-[[6-(1-methylpyrazol-3-yl)-3-pyridyl]methyl]-N-(tetrahydropyran-4-ylmethyl)thieno[2,3-b]pyridine-6-carboxamide]
60.5 | 390 | Cc1nc(-c2ccc(Cc3cc(C(=O)NC4CC5(COC5)C4)nc4sccc34)cc2)co1 [Compound 139, 4-[[4-(2-methyloxazol-4-yl)phenyl]methyl]-N-(2-oxaspiro[3.3]heptan-6-yl)thieno[2,3-b]pyridine-6-carboxamide]
57.7 | 540 | Cc1nc(-c2ccc(Cc3cc(C(=O)NCC4CCOCC4)nc4sccc34)cc2)co1 [Compound 135]
54.8 | 50 | CC1CC(NC(=O)c2cc(Cc3ccc(-c4cnn(C)c4)nc3)c3ccsc3n2)CC(C)O1 (stereo not drawn) [Compound 116, N-(2,6-dimethyltetrahydropyran-4-yl)-4-[[6-(1-methylpyrazol-4-yl)-3-pyridyl]methyl]thieno[2,3-b]pyridine-6-carboxamide]
79.3 | 520 | Cn1ccc(-c2ccc(Cc3cc(C(=O)NC4CCOC(C)(C)C4)nc4c3ccn4C)cn2)n1 (stereo not drawn) [Compound 146, N-(2,2-dimethyltetrahydropyran-4-yl)-1-methyl-4-[[6-(1-methylpyrazol-3-yl)-3-pyridyl]methyl]pyrrolo[2,3-b]pyridine-6-carboxamide]
60.5 | 810 | Cn1cc(-c2ccc(Cc3cc(C(=O)N[C@H]4CCCC[C@@H]4O)nc4sccc34)cn2)cn1 [Compound 113, N-[(1S,2S)-2-hydroxycyclohexyl]-4-[[6-(1-methylpyrazol-4-yl)-3-pyridyl]methyl]thieno[2,3-b]pyridine-6-carboxamide]
59.5 | 390 | COCC(C)NC(=O)c1cc(Cc2ccc(-c3ccn(C)n3)nc2)c2ccsc2n1 (stereo not drawn) [Compound 112, N-(2-methoxy-1-methyl-ethyl)-4-[[6-(1-methylpyrazol-3-yl)-3-pyridyl]methyl]thieno[2,3-b]pyridine-6-carboxamide]
74.2 | 920 | Cn1ccc(-c2ccc(Cc3cc(C(=O)N[C@H]4CC[C@@H]4O)nc4c3ccn4C)cn2)n1 [Compound 156, N-[(1S,2S)-2-hydroxycyclobutyl]-1-methyl-4-[[6-(1-methylpyrazol-3-yl)-3-pyridyl]methyl]pyrrolo[2,3-b]pyridine-6-carboxamide]
41.4 | 60 | Cc1nc(-c2ccc(Cc3cc(C(=O)N[C@H]4CCOC[C@@H]4O)nc4sccc34)cc2)co1 [Compound 130, N-[(3R,4S)-3-hydroxytetrahydropyran-4-yl]-4-[[4-(2-methyloxazol-4-yl)phenyl]methyl]thieno[2,3-b]pyridine-6-carboxamide]
62.8 | 3330 | COCCNC(=O)c1cc(Cc2ccc(-c3ccn(C)n3)cc2)c2ccsc2n1 [Compound 99, N-(2-methoxyethyl)-4-[[4-(1-methylpyrazol-3-yl)phenyl]methyl]thieno[2,3-b]pyridine-6-carboxamide]

Source: US10899759B2, “Positive allosteric modulators of the muscarinic acetylcholine receptor M1” (Vanderbilt University, priority 2016, dated 2021)
